Experimental data as given in patent US20170209415A1, “USE OF (+)-1-(3,4-DICHLOROPHENYL)-3-AZABICYCLO[3.1.0]HEXANE TO TREAT ADDICTIVE DISORDERS INCLUDING NICOTINE ADDICTION” (priority 2012, published 2017).

What was measured:
[1] = molecular target: T1, α4β2 nicotinic receptors (Homo sapiens, UniProt P17787+P43681); test: Radioligand binding to α4β2 nicotinic receptors in SH-SYSY cells ([3H]cytosine)
T1 construct: Cerep, Inc. (Poitiers, France), contract assay; host or cells: SH-SYSY (SH-SY5Y) cells
Procedure: (§1) To examine the possibility that a (+)-1-(3, 4-dichlorophenyl)-3-azabicyclo[3.1.0]hexane may have effects mediated via direct actions on nicotinic receptors, its affinity was determined for α7 and α4β2 nicotinic receptors in radioligand binding assays. The assessment was conducted by Cerep, Inc. (Poitiers, France). Inhibition of binding to α4β2 nicotinic receptors in SH-SYSY cells was determined using the radioligand [^3H]cytosine at 0.6 nM concentration according to the method of Gopalakrishnan et al. (1996). Incubation was for 120 minutes at 4° C. and non-specific binding was determined with 10 μM nicotine. Inhibition of binding to α7 nicotinic receptors in SH-SYSY cells was determined using [^125I]α-bungarotoxin (0.05 nM) according to the method of Sharples et al. (2000). Incubation was 120 minutes at 37° C. and non-specific binding was determined using α-bungarotoxin (1 μM). Specific binding of the radioligands was determined by scintillation spectrometry technology.

[2] = test system: alcohol-preferring (P) rats; test: Nicotine sensitization, open field locomotor activity in alcohol-preferring rats; format: in vivo, rat; conditions: for locomotor activity when administered alone: oral 2.5-40 mg/kg without nicotine, P rats
Procedure: P and NP (alcohol-nonpreferring) rats were administered nicotine by subcutaneous injection of 0.4 mg/kg nicotine each day for 10 days. The rats were then immediately run for 90 minute locomotor sessions using an open-field activity monitoring cage (27×27×20.3 cm, Med Associates, Inc., St. Albans, Vt.). Activity counts represented by the number of infrared beam interruptions were recorded for each animal.
To evaluate the capacity of oral (+)-1-(3, 4-dichlorophenyl)-3-azabicyclo[3.1.0]hexane to block nicotine-induced sensitization in P rats, cohorts of P rats (n=6-9/group) were sensitized to nicotine as described in Example I. The rats were then divided into sixteen groups and given either vehicle, nicotine alone, 2.5 mg/kg (+)-1-(3, 4-dichlorophenyl)-3-azabicyclo[3.1.0]hexane, 5 mg/kg (+)-1-(3, 4-dichlorophenyl)-3-azabicyclo[3.1.0]hexane, 10 mg/kg (+)-1-(3, 4-dichlorophenyl)-3-azabicyclo[3.1.0]hexane, 25 mg/kg (+)-1-(3, 4-dichlorophenyl)-3-azabicyclo[3.1.0]hexane, or 40 mg/kg (+)-1-(3, 4-dichlorophenyl)-3-azabicyclo[3.1.0]hexane. Thirty minutes after administration of (+)-1-(3, 4-dichlorophenyl)-3-azabicyclo[3.1.0]hexane, half of the rats were given 0.4 mg/kg nicotine or vehicle. The rats were then immediately run for 90 minute locomotor sessions using an open-field activity monitoring cage (27×27×20.3 cm, Med Associates, Inc., St. Albans, Vt.). Activity counts represent the number of infrared beam interruptions were recorded for each animal.

[3] = test system: alcohol-preferring (P) rats; test: Nicotine withdrawal effects in ICSS paradigm in alcohol-preferring rats; format: in vivo, rat
Procedure: (§2) Rats were anesthetized with isoflurane and an electrode was implanted in the medial forebrain bundles as previously described (Eiler et al., 2005; 2007). Behavioral training and testing was conducted in standard operant chambers (Coulbourn Instruments, Allentown, Pa.) equipped with a removable lever enclosed in a sound attenuating cubicle as previously reported (Eiler et al., 2005; 2007). Four dependent variables were collected in the studies: (1) the frequency that corresponds with 50% of responding (EF50), (2) the minimum/lowest frequency capable of maintaining brain stimulation reward (BSR), (3) the maximum frequency producing the highest rate of lever pressing throughout the BSR session and (4) the total number of lever presses produced during a 20 minute session.
After surgical implantation, rats were trained on a continuous reinforcement (FR1) schedule, and then decreased to a frequency of reinforcement after every six correct responses (FR6) until stabilization. After training, the rats were sensitized with nicotine (0.4 mg/kg daily) for 14 days. 12 hours after the last dose of nicotine, animals were run for a 20 min FR-6 ICSS sessions. ICSS sessions were run every 12 hours (12 hrs, 24 hrs, 36 hrs, 48 hrs, 60 hrs and 72 hrs) for 72 hours.
as §2, with “The effect of (+)-1-(3, 4-dichlorophenyl)-3-azabicyclo[3.1.0]hexane on nicotine withdrawal and ICSS was examined in P rats. Rats” for “Rats”
After surgical implantation, rats were trained on a continuous reinforcement (FR1) schedule, and then decreased to a frequency of reinforcement after every six correct responses (FR6) until stabilization. After training, the rats were sensitized with nicotine (0.4 mg/kg daily) for 14 days. Rats were then given either PBS, 20 mg/kg of (+)-1-(3, 4-dichlorophenyl)-3-azabicyclo[3.1.0]hexane or 40 mg/kg of (+)-1-(3, 4-dichlorophenyl)-3-azabicyclo[3.1.0]hexane. After 48 hours, the animals were run for a 20 min FR-6 ICSS session.

[4] = cited from earlier work
[5] = test system: alcohol-preferring (P) rats; test: Forced swim test during nicotine withdrawal in alcohol-preferring rats; format: in vivo, rat
Procedure: The forced swim test (FST) is an animal model of depression in which nicotine withdrawal causes increased immobility (i.e. despair) in the rodents. The FST accordingly may be used as an animal model to evaluate negative affective states during nicotine withdrawal, which may emulate “depressive-like” behavior in human nicotine addicts.
P rats were administered nicotine by subcutaneous injection of 0.4 mg/kg nicotine each day for 14 days and then deprived of nicotine. Lucki's modified FST (Cryan et al., 2002) was performed using immobility, climbing and swimming every twelve hours following the last dose of nicotine (12 hrs, 24 hrs, 36 hrs, 48 hrs, 60 hrs and 72 hrs) for 72 hours.

[6] = molecular target: T2, α7 nicotinic receptors (Homo sapiens, UniProt P36544); test: Radioligand binding to α7 nicotinic receptors in SH-SYSY cells ([125I]α-bungarotoxin)
T2 construct: Cerep, Inc. (Poitiers, France), contract assay; host or cells: SH-SYSY (SH-SY5Y) cells
Procedure: as §1

[7] = test system: alcohol-preferring (P) rats; test: Nicotine potentiation of intracranial self-stimulation (ICSS) in alcohol-preferring rats; format: in vivo, rat
Procedure: as §2, with “BSR session,” for “BSR session”
After surgical implantation, rats were trained on a continuous reinforcement (FR1) schedule, then decreased to a frequency of reinforcement after every six correct responses (FR6) until stabilization.
Following the initial ICSS experiments, the effects of varied doses of nicotine were examined in the ICSS paradigm. Animals were prepared and trained as described above.
as §2, with “The effect of (+)-1-(3, 4-dichlorophenyl)-3-azabicyclo[3.1.0]hexane on the nicotine facilitation of ICSS was examined in P rats. Rats” for “Rats”
After surgical implantation, rats were trained on a continuous reinforcement (FR1) schedule, then decreased to a frequency of reinforcement after every six correct responses (FR6) until stabilization. After training, the rats were sensitized with nicotine (0.4 mg/kg daily) using the Kelley 10-day sensitization model as described in Example I (rats were treated with either nicotine (0.4 mg/ml/kg) or saline once per day for 10 days in a test environment distinct from their home cages (Schroeder et al., 2001).
After sensitization, three of the nicotine cohorts of P rats (n=8) were given (+)-1-(3, 4-dichlorophenyl)-3-azabicyclo[3.1.0]hexane (10, 20 or 40 μg) into the medial prefrontal cortex (mPC) prior to the daily administration of nicotine (0.4 mg/ml/kg).

[8] = oral 20 and 40 mg/kg, 48 hours nicotine abstinence
[9] = read-out: % Inhibition of binding
[10] = 12-72 hrs after last dose, 0.4 mg/kg daily for 14 days
[11] = after 0.4 mg/kg sc daily for 14 days
[12] = 0.2-0.8 mg/kg SQ, all 3 doses, sensitized P rats

T2 sequence (P36544 23-502): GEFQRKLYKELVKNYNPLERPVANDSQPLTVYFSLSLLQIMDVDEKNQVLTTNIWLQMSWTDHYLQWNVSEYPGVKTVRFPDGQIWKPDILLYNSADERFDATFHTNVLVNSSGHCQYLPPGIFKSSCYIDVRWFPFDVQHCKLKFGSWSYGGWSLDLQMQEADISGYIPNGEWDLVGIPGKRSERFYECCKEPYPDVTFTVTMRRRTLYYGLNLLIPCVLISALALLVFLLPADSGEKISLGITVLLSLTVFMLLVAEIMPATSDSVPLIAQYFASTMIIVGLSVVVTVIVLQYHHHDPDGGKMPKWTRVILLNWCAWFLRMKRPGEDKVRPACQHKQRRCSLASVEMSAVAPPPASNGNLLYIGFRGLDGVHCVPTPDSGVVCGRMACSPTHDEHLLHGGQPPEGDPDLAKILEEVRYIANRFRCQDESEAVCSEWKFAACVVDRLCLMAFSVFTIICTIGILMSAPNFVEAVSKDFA
T1 sequence (P43681 29-627 limits assumed): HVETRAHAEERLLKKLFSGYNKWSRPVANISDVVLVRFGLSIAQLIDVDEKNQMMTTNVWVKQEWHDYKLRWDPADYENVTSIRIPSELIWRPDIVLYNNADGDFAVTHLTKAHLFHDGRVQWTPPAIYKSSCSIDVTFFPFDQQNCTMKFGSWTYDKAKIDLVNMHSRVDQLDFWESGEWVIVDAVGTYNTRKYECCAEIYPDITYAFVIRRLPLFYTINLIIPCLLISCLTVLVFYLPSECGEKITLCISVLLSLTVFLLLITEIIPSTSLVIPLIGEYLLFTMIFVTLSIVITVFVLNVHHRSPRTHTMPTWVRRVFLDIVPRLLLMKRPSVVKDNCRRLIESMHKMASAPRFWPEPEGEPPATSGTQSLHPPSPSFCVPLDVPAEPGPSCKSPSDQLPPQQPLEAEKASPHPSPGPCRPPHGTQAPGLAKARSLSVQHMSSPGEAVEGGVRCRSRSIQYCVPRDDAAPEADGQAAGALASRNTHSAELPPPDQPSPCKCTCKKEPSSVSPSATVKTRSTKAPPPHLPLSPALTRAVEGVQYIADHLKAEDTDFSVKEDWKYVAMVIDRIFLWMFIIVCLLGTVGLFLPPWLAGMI
T1 sequence (P17787 26-502): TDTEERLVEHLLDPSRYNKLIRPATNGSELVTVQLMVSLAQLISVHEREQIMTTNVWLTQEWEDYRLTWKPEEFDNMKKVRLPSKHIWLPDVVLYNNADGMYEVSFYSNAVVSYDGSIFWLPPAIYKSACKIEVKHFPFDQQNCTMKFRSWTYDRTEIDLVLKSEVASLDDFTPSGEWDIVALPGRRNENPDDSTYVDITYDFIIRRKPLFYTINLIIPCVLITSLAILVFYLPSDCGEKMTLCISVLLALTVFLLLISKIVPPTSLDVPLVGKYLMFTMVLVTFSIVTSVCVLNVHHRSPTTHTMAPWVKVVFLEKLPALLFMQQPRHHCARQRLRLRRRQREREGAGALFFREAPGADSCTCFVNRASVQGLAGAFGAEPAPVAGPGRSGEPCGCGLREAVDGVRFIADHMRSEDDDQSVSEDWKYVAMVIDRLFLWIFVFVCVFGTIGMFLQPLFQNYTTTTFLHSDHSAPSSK

Clc1ccc([C@]23CNC[C@H]2C3)cc1Cl [amitifadine, (1R,5S)-(+)-1-(3,4-dichlorophenyl)-3-azabicyclo[3.1.0]hexane]
inhibition at 0.1 µM ([1]; concentration 100 nM): 17% | inhibition at 1 µM ([1]; concentration 1000 nM): 14% | inhibition at 10 µM ([1]; concentration 10000 nM): 13% | effect on binding of radioligand ([1]; concentrations from 100 to 10,000 nM): no appreciable effect | nicotine-induced increases in horizontal activity ([2]; oral 2.5, 5, 10, 25, 40 mg/kg, 30 min before 0.4 mg/kg nicotine, sensitized P rats, 90 minute open field session): significantly reduced | locomotor activity when administered alone ([2]; 90 minute open field session): did not significantly alter | locomotor activity when administered alone ([2]; 90 minute open field session, listed as (+)-1-(3, 4-dichlorophenyl)-3-azabicyclo[3.1.0]hexane): did not alter | reduction in responding produced by the 48 hour withdrawal period ([3]; oral 20 and 40 mg/kg): elevated | nicotine elevation of the reward threshold, EF50 [3, 8]: profound reduction | nicotine elevation of the reward threshold, minimum frequency [3, 8]: profound reduction | tolerability ([4]; U.S. Ser. No. 13/310,694, Graff et al. 2009): well tolerated | dopaminergic side effects such as nausea, vomiting, and hypomania ([4]; in vivo): did not lead to | noradrenergic side effects such as significantly elevated heart rate and increased systolic and diastolic blood pressure ([4]; in vivo): did not lead to | nicotine-induced increases in immobility ([5]; oral 12.5 or 25 mg/kg administered at 48 hours of nicotine abstinence): significantly attenuated | inhibition at 0.1 µM [6, 9]: 13% | inhibition at 1 µM [6, 9]: 6% | inhibition at 10 µM [6, 9]: -9% | effect on binding of radioligand ([6]; α7, concentrations from 100 to 10,000 nM): no appreciable effect | nicotine elevation in total responding ([7]; 10, 20 or 40 μg into mPC): attenuation | nicotine reduction of EF50 ([7]; 10, 20 or 40 μg into mPC): attenuation | nicotine reduction of minimum frequency ([7]; 10, 20 or 40 μg into mPC): attenuation | nicotine facilitation on ICSS ([7]; 10, 20 or 40 μg into medial prefrontal cortex immediately prior to nicotine 0.4 mg/ml/kg, P rats): significantly reduced

COC[C@@H]1[C@@H](c2ccc(Cl)c(Cl)c2)C[C@@H]2CC[C@H]1N2 [GSK372475, reference compound]
noradrenergic side effects such as significantly elevated heart rate and increased systolic and diastolic blood pressure ([4]; in vivo): seen

CN1CCCC1c1cccnc1 (stereo not shown) [nicotine]
sensitization to nicotine (open field activity) ([2]; 0.4 mg/kg sc daily for 10 days, P versus NP rats): occurs in P rats only | EF50 during withdrawal [3, 10]: time dependent increase | minimum frequency capable of maintaining BSR during withdrawal [3, 10]: time dependent increase | total ICSS responding during withdrawal [3, 10]: marked reduction | climbing during nicotine abstinence [5, 11]: Reduction | swimming during nicotine abstinence [5, 11]: Reduction | immobility during nicotine abstinence ([5]; at 48 and 72 hours after 0.4 mg/kg sc daily for 14 days): significant elevation | sensitivity to the reward potentiating effects of nicotine in ICSS following sensitization ([7]; 0.4 mg/kg sc on day 11, P, but not NP, rats): enhanced sensitivity | ICSS responding versus saline ([7]; 0.2-0.8 mg/kg SQ on day 11, sensitized P rats): higher responding than did saline | EF50 [7, 12]: reduction | minimum frequency [7, 12]: reduction
